These results are taken from ChEMBL document CHEMBL4680333, “Lipophilic tail modifications of 2-(hydroxymethyl)pyrrolidine scaffold reveal dual sphingosine kinase 1 and 2 inhibitors” (Bioorg Med Chem, 2021).

The first assay has as its target T1, Sphingosine kinase 2 (Homo sapiens) (UniProt Q9NRA0).
T1 sequence (whole entry): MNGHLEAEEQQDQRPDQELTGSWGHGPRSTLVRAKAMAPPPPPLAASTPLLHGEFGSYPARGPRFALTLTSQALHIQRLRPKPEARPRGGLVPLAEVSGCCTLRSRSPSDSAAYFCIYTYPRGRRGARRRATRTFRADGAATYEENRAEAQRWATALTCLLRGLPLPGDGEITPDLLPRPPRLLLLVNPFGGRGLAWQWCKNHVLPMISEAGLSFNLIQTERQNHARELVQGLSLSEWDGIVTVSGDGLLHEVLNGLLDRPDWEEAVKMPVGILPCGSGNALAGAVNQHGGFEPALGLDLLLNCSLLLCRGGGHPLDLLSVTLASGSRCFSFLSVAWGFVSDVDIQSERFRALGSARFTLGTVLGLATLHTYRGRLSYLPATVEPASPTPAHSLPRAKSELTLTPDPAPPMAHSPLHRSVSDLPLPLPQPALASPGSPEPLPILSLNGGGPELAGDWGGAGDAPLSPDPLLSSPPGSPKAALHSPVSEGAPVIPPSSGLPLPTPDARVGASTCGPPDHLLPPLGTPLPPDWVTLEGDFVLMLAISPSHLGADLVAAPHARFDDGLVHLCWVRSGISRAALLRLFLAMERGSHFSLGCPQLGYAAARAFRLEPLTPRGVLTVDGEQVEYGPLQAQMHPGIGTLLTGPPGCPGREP
Put plainly: Inhibition of recombinant human SphK2 assessed as decrease in [33P]SIP production at 0.3 uM using sphingosine as substrate in presence of [gamma33P]-ATP by scintillation counting method relative to control.
For the compound `OC[C@H]1CCCN1Cc1ccc(Oc2cccc(-c3ccccc3)c2)cc1`, the inhibition worked out at 0%.

Regarding `CCCCCc1ccc(C#Cc2ccc(CN3CCC[C@@H]3CO)cc2)cc1`, the inhibition came out at 19%.

Consider `CC(C)(C)c1ccc(Oc2ccc(CN3CCC[C@@H]3CO)cc2)cc1`, for which the inhibition was 22%.

With `OC[C@H]1CCCN1Cc1ccc(Oc2ccc(-c3ccccc3)cc2)cc1`, the inhibition was found to be 9%.

As to `CCCCCCCCCc1ccc(CN2CCC[C@@H]2CO)cc1`, the inhibition amounted to 44%.

For `CCCCCCCCCCCCc1ccc(CN2CCC[C@@H]2CO)c(C)c1`, the inhibition is 38%.

Turning to `COc1ccc(CCc2ccc(CN3CCC[C@@H]3CO)cc2)cc1`, the inhibition turned out to be 3%.

As for `CCCCc1ccc(C#Cc2ccc(CN3CCC[C@@H]3CO)cc2)cc1`, the inhibition is 25%.

With `OC[C@H]1CCCN1Cc1ccc(/C=C/c2cccc(C(F)(F)F)c2)cc1`, the inhibition is 0%.

Turning to `CCCCCCCCCCCc1ccc(CN2CCC[C@@H]2COC(C)=O)cc1`, the inhibition was determined as 2%.

As for `CCCCCc1ccc(CCc2ccc(CN3CCC[C@@H]3CO)cc2)cc1`, the inhibition stood at 13%.

For `CCCc1ccc(C#Cc2ccc(CN3CCC[C@@H]3CO)cc2)cc1`, the inhibition was found to be 0%.

With `CCCc1ccc(CCc2ccc(CN3CCC[C@@H]3CO)cc2)cc1`, the inhibition was 15%.

For the compound `CCCCCCCCCCCCc1ccc(CN2CCC[C@@H]2CO)cc1`, the inhibition is 37%.

For `OC[C@H]1CCCN1Cc1ccc(Oc2ccc(-c3cccc(C(F)(F)F)c3)cc2)cc1`, the inhibition was found to be 52%.

In the case of `CCCCCCCCOc1ccc(CN2CCC[C@@H]2CO)cc1`, the inhibition came to 1%.

As to `Cc1ccc(CCc2ccc(CN3CCC[C@@H]3CO)cc2)cc1`, the inhibition is 26%.

As for `OC[C@H]1CCCN1Cc1ccc(Oc2cccc(-c3ccc(C(F)(F)F)cc3)c2)cc1`, the inhibition amounted to 1%.

As to `CC(C)(C)c1cccc(Oc2ccc(CN3CCC[C@@H]3CO)cc2)c1`, the inhibition is 11%.

Turning to `OC[C@H]1CCCN1Cc1ccc(Oc2ccccc2)cc1`, the inhibition came out at 13%.

For `CCCCCCCCCOc1ccc(CN2CCC[C@@H]2CO)cc1`, the inhibition came to 44%.

For the compound `Cc1cc(/C=C/c2ccc(C(C)(C)C)cc2)ccc1CN1CCC[C@@H]1CO`, the inhibition turned out to be 3%.

In the case of `CCCCCCCCCCCc1ccc(CN2CCC[C@@H]2CO)cc1`, the inhibition worked out at 18%.

As for `OC[C@H]1CCCN1Cc1ccc(OCc2ccc(C(F)(F)F)cc2)cc1`, the inhibition was determined as 0%.

For `CCCCc1ccc(CCc2ccc(CN3CCC[C@@H]3CO)cc2)cc1`, the inhibition was 0%.

On to `CCCCCCCOc1ccc(CN2CCC[C@@H]2CO)cc1`, for which the inhibition came to 0%.

As for `OC[C@H]1CCCN1Cc1ccc(Oc2cccc(-c3cccc(C(F)(F)F)c3)c2)cc1`, the inhibition worked out at 11%.

Take `CCCCCCCCCCOc1ccc(CN2CCC[C@@H]2CO)cc1`: the inhibition worked out at 11%.

`OC[C@H]1CCCN1Cc1ccc(Oc2ccc(-c3ccc(C(F)(F)F)cc3)cc2)cc1`: the inhibition is 0%.

`CCCCCCCCCCc1ccc(CN2CCC[C@@H]2CO)cc1`: the inhibition was found to be 54%.

The next assay has as its target T2, Sphingosine kinase 2 (Homo sapiens, UniProt Q9NRA0).
T2 sequence (Q9NRA0 whole entry): T1 sequence (whole entry)
Description: Inhibition of recombinant human SphK2 assessed as decrease in [33P]SIP production using sphingosine as substrate in presence of [gamma33P]-ATP by scintillation counting method
In turn, `CCCCCCCCOc1ccc(COc2ccc(-c3noc([C@@H]4CCCN4C(=N)N)n3)cc2C(F)(F)F)cc1` had an inhibitory constant (Ki) of 400 nM.

In turn, `CCCCCCCCCCCCc1ccc(CN2CCC[C@@H]2CO)cc1` gave a Ki of 951 nM.

Usually inhibition stands for how much of the control response was suppressed. A word on the Ki: it is a dissociation constant, usually derived from enzyme kinetics or from competition with a known ligand.
